Experimental data reported in patent publication US12691101B2, “Compound and method for preventing or treating of respiratory diseases comprising the same as an active ingredient” (YONSEI UNIVERSITY, UNIVERSITY - INDUSTRY FOUNDATION (UIF), priority 2019, dated 2026).

What was measured:
[1] = molecular target: T1, SLC26A9 (Homo sapiens, UniProt Q7LBE3); assay: Cl^−/HCO3^− exchange in CHO-K1 cells expressing SLC26A9; type: cell-based
T1 construct: expressed in transfected cells; host or cells: CHO-K1
T1 sequence (Q7LBE3 whole entry, species assumed): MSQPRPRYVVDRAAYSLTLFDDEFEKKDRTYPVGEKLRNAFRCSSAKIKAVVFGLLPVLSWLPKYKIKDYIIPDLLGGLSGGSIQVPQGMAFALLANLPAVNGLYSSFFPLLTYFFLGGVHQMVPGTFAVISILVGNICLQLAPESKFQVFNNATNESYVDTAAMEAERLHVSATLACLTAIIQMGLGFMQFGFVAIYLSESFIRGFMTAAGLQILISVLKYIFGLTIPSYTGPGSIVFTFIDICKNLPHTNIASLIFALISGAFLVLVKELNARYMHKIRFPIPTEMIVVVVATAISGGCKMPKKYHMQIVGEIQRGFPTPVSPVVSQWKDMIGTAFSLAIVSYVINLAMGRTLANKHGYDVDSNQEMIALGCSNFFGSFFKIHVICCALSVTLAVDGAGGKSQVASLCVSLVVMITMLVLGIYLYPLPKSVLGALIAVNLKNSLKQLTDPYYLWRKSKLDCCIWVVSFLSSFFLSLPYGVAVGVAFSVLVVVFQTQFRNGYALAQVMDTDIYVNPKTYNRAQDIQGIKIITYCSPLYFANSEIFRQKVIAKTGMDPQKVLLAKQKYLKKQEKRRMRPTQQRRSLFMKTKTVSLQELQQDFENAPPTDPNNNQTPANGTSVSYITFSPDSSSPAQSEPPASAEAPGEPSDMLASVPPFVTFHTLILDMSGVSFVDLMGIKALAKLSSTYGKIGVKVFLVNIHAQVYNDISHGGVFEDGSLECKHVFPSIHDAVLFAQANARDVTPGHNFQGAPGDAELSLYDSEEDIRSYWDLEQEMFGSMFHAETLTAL
Description: (A) The inhibition of mouse pendrin (mPDS)-mediated Cl^−/I^− exchange activity by F56 was measured in CHO-K1 cells (mean±S.E., n=5). The indicated concentration of F56 was pretreated for 10 minutes. (B) Summary of dose-response for inhibition of the human pendrin (hPDS)-mediated (closed circle, FIG. (a), C) and mPDS-mediated (open circle) Cl^−/I^− exchange activity. (C-F) Representative traces of intracellular pH in CHO-K1 cells expressing SLC26A3, SLC26A6, SLC26A7 and SLC26A9 were shown. The application of Cl^− free solution induced intracellular alkalization by Cl^−/HCO3^− exchange. The indicated concentration of F56 was pretreated for 10 minutes. (G) the effect of F56 (100 μM) on the CFTR chloride channel activity was measured in FRT cells expressing human CFTR. The CFTR current was activated by 20 μM forskolin and was inhibited by 10 μM CFTRinh-172. (H) The effect of F56 (100 μM) on the AN01 chloride channel activity was measured in FRT cells expressing human AN01. Before 10 minutes prior to AN01 activation by 100 μM ATP, F56 was added. (Right) Peak current summary (mean±S.E., n=3). (I) The effect of F56 on the hERG (Kv11.1) potassium channel activity was measured in HEK293T cells expressing human Kv11.1 (mean±S.E., n=4). […] (J) The effect of F56 on the 5-HT2A channel activity was measured in FRT cells expressing human 5-HT2A (mean±S.E., n=4). […]

[2] = tested on: AN01; assay: Protein expression measurement in IL-4-treated HNE cells, AN01; type: cell-based, human; conditions: long-term treatment
Description: CHO-K1 and HNE cells were lysed with a cytolytic buffer (50 mM Tris-HCl, pH 7.4, 1% Nonidet P-40, 0.25% sodium deoxycholate, 150 mM NaCl, 1 mM EDTA, 1 mM Na3VO4, and protease inhibiting mixture). The total cell lysates were under centrifugation at 15,000×g for 10 minutes at 4° C. to remove cellular debris and the same amount (50 μg protein or 5 μg protein/lane) of supernatant protein was isolated on 4-12% Tris-glycine precast gel (KOMA BIOTECH, Seoul, Korea) and transferred to PVDF membrane (Millipore, Billerica, MA, USA). The membrane was blocked with 5% fat-free skim milk in TBS containing 0.1% Tween 20 (TBST) or 5% bovine serum albumin in TBS at a room temperature for 1 hour. Then, the membrane was cultured at 4° C. overnight with a primary antibody against pendrin (sc-50346; Santa Cruz Biotechnology, Santa Cruz, CA, USA), NF-κB p65 (4764S; Cell Signaling Technology, Danvers, MA, USA), p-NF-κB p65 (3033S; Cell Signaling Technology), IkBα (9242S; Cell Signaling Technology), p-IkBα (9141S; Cell Signaling Technology), β-actin (sc-47778; Santa Cruz Biotechnology), or AN01 (ab64085; Abeam). After washing with 0.05% Tween 20 (TBST) in PBS, the blot was additionally cultured with a secondary antibody (Cell Signaling Technology, Danvers, MA) at a room temperature for 60 minutes. […]

[3] = tested on: Duox1 and Duox2 mRNA; assay: Real-time PCR of Duox1 and Duox2 mRNA in IL-4-treated HNE cells; type: cell-based, human
Description: The total messenger RNA (mRNA) was extracted using TRIzol reagent (Invitrogen, Carlsbad, CA, USA), and was reverse-transcribed using a random hexamer primer, an oligo(dT) primer and SuperScript® III reverse transcriptase (Invitrogen). Quantitative real-time PCR was performed using StepOnePlus Real-Time PCR system (Applied Biosystems, Foster City, CA, USA) and Thunderbird SYBR qPCR mix (Tokyobo, Osaka, Japan). Thermal cycling conditions included the initial stage at 95° C. for 5 minutes, and subsequent 40 cycles at 95° C. for 10 seconds, at 55° C. for 20 seconds and at 72° C. for […].

[4] = Auditory brainstem response (ABR) hearing threshold in mice; type: in vivo, mouse; conditions: 10 mg/kg/day for 1 week
Description: The negative effect of F56 was examined by i.p administering of F56 10 mg/kg to female balb/c mice every 24 hours for 7 days. In 24 hours after the last administration, the hearing of mice was measured and serum was obtained. According to the manufacturer's protocol, the total serum level of triiodothyronine (T3) or thyroxine (T4) using a mouse ELISA kit (Calbiotech, T3043T-100 or T4044T-100).
The hearing level was measured in each mouse by measuring ABR threshold using an auditory-evoking potential workstation and BioSig software (Tucker-Davis Technologies, Alachua, FL, USA). The output from the speaker was calibrated using PCB 377C10 microphone (PCB Piezotronics, Inc. New York, NY, USA) and found to be within ±4 dB over the tested frequency range. After anesthetizing the mice, each ear was stimulated with an ear probe sealed inside the ear canal. The body temperature of the mice was maintained at 38° C. with an isothermal heating water-pad. The intensity of the click sound decreased from 70 dB SPL to 10 dB SPL with a 5-dB decrease. The mean value of ABR was calculated and the auditory threshold was defined as the lowest ABR response until wave I of ABR was no longer visually discernible.

[5] = tested on: pendrin; assay: Pendrin protein expression in LPS-treated human alveolar epithelial cells (hAEC); type: cell-based
Description: The lung tissue was harvested and dissolved in a homogenization buffer (PRO-PREP™ extraction solution, iNtRON Biotechnology). The sample was centrifuged at 4° C. for 30 minutes at 13000 g. The supernatant protein concentration was determined by BCA analysis (Thermo Fisher Scientific). The same amount of protein was separated by SDS/PAGE and transferred to a nitrocellulose membrane. The membrane was blocked with 5% skim milk in TBS-T (TBS (170-6435, Bio-Rad Laboratories) and 1% Tween-20 (170-6531, Bio-Rad Laboratories) for 1 hours. Then, the membrane was cultured overnight with the primary antibody diluted with 5% skim milk in TBS-T at 4° C. After washing with TBS-T, the blot was cultured with horseradish peroxidase-combined secondary antibody and 5% skim milk in TBS-T at a room temperature for 1 hour, and then developed using Super-Signal West Pico chemiluminescence detection kit. The antibody used in the present invention includes rabbit SLC26A4 (ab98091, abcam), mouse phospho-Iκ (9246, Cell Signaling Technology), mouse Iκ (4814, Cell Signaling Technology), and rabbit α-tubulin (PA5-16891, Cell Signaling Technology). Western blot quantization was performed using ImageJ (Image Processing and Analysis in Java; NIH, USA) software.

In the case of CC(C)(C)c1ccc(C2=NC(=Cc3cccs3)C(=O)O2)cc1 [F56, 2-(4-(tert-butyl)phenyl)-4-(thiophen-2-ylmethylene)oxazol-5(4H)-one], the “effect on SLC26A9 Cl^−/HCO3^− exchange” value [1] is reported as “did not affect”, the “IL-4-induced upregulation of AN01” value [2] is reported as “not affected” and the “mRNA expression of Duox1 or Duox2” value [3] is reported as “did not affect”. The hearing threshold [4] was “not changed” and the “protein expression level of pendrin” value [5] was “reduced”.
